Measured values published in patent US20240376091A1, “THIADIAZOLEAMIDE DERIVATIVES AND THEIR APPLICATIONS” (ZHEJIANG UNIVERSITY, priority 2021, published 2024).

Target: T1, AR (Homo sapiens, UniProt P10275, T878A)
T1 construct: into the androgen-dependent PCa cells (LNCaP); endogenous in cells; host or cells: LNCaP-ARR2PB-eGFP
T1 sequence (P10275 1-920 T878A): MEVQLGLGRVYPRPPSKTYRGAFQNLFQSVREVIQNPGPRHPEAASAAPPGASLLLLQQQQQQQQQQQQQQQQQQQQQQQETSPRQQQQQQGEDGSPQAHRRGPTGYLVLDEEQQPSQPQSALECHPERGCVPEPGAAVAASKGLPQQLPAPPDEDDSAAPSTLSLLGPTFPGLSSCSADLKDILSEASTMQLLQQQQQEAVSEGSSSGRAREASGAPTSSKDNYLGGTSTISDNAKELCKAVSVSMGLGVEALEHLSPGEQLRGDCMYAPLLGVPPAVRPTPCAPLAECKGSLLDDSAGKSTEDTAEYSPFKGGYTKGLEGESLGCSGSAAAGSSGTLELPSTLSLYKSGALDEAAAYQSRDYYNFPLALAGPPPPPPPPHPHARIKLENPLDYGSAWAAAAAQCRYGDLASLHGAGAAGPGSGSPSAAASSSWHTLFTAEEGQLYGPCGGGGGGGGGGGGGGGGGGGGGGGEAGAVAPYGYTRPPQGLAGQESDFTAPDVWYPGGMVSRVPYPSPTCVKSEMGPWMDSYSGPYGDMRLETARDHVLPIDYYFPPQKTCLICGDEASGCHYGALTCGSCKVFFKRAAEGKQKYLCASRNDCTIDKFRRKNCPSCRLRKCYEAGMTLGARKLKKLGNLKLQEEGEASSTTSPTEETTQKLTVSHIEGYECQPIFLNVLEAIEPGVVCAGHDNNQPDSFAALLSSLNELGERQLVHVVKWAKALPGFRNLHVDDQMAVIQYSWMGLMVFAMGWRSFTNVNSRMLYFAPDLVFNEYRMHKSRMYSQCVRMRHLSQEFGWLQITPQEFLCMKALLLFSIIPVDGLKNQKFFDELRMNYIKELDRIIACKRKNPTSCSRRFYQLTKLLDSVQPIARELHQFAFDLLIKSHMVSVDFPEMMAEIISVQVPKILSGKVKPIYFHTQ
Test: AR transcriptional activity, LNCaP-ARR2PB-eGFP reporter cells
Assay type: cell-based
Conditions: read-out: IC50 AR transcriptional activities
From the text: Detection principles: We conducted a stable transfection of promoter ARR2PB known for its strong AR responsiveness, into the androgen-dependent PCa cells (LNCaP). The expression of enhanced green fluorescent protein (eGFP) is depending on the degree of activation of AR. Therefore, LNCaP-ARR2PB-eGFP cell line could quantitatively determine the AR antagonistic activities of the compounds by evaluating the expression of eGFP.

| IC50 [µM] | SMILES |
| --- | --- |
| 1.45 | CN1CCN(Cc2nsc(NC(=O)c3cc(-c4cccc(C#N)c4)oc3C(F)(F)F)n2)CC1 [Compound E-38, 5-(3-Cyanophenyl)-N-(3-((4-methylpiperazin-1-yl)methyl)-1,2,4-thiadiazol-5-yl)-2-(trifluoromethyl)furan-3-carboxamide] |
| 32.6 | CC(=O)Cc1nsc(NC(=O)c2csc(-c3cccc(C#N)c3)c2)n1 [Compound D-2, 5-(3-Cyanophenyl)-N-(3-(2-oxopropyl)-1,2,4-thiadiazol-5-yl)thiophene-3-carboxamide] |
| 35.7 | CC(=O)Cc1nsc(NC(=O)c2cc(-c3cccc(OC(F)(F)F)c3)c(C)o2)n1 [Compound F-4, 5-Methyl-N-(3-(2-oxopropyl)-1,2,4-thiadiazol-5-yl)-4-(3-(trifluoromethoxy)phenyl)furan-2-carboxamide] |
| 19.8 | N#Cc1cccc(-c2coc(C(=O)Nc3nc(CN4CCCCC4)ns3)c2)c1 [Compound G-25, 4-(3-Cyanophenyl)-N-(3-(piperidin-1-ylmethyl)-1,2,4-thiadiazol-5-yl)furan-2-carboxamide] |
| 23 | CC(F)(F)Cc1nsc(NC(=O)c2cc(-c3cccc(OC(F)(F)F)c3)co2)n1 [Compound G-17, N-(3-(2,2-difluoropropyl)-1,2,4-thiadiazol-5-yl)-4-(3-(trifluoromethoxy)phenyl)furan-2-carboxamide] |
| 15 | CCN(CC)Cc1nsc(NC(=O)c2csc(-c3cccc(OC)c3)c2)n1 [Compound D-50, N-(3-((diethylamino)methyl)-1,2,4-thiadiazol-5-yl)-5-(3-methoxyphenyl)thiophene-3-carboxamide] |
| 29.3 | CC(O)Cc1nsc(NC(=O)c2cc(-c3cccc(C(F)(F)F)c3)co2)n1 (centres unmarked) [Compound G-11, N-(3-(2-hydroxypropyl)-1,2,4-thiadiazol-5-yl)-4-(3-(trifluoromethyl)phenyl)furan-2-carboxamide] |

The next lines start with the compound.

| SMILES | IC50 [µM] |
| --- | --- |
| Cc1oc(-c2cccc(C(F)(F)F)c2)cc1C(=O)Nc1nc(CC(C)N2CCCC2)ns1 (centres unmarked) [Compound A-40, 2-Methyl-N-(3-(2-(pyrrolidin-1-yl)propyl)-1,2,4-thiadiazol-5-yl)-5-(3-(trifluoromethyl)phenyl)furan-3-carboxamide] | 0.23 |
| [2H]c1c(-c2cccc(C(F)(F)F)c2)oc(C)c1C(=O)Nc1nc(CC(C)=O)ns1 [Compound A-34, 2-Methyl-N-(3-(2-oxopropyl)-1,2,4-thiadiazol-5-yl)-5-(3-(trifluoromethyl)phenyl)furan-4-d-3-carboxamide] | 0.04 |
| Cc1oc(-c2cccc(C(F)(F)F)c2)cc1C(=O)Nc1nc(CC(C)(C)O)ns1 [Compound A-90, N-(3-(2-hydroxy-2-methylpropyl)-1,2,4-thiadiazol-5-yl)-2-methyl-5-(3-(trifluoromethyl)phenyl)furan-3-carboxamide] | 0.05 |
| Cc1oc(-c2cccc(C(F)(F)F)c2)cc1C(=O)Nc1nc(CC(C)N2CCOCC2)ns1 (centres unmarked) [Compound A-42, 2-Methyl-N-(3-(2-morpholinopropyl)-1,2,4-thiadiazol-5-yl)-5-(3-(trifluoromethyl)phenyl) furan-3-carboxamide] | 0.36 |
| Cc1sc(-c2cccc(C(F)(F)F)c2)cc1C(=O)Nc1nc(CC(C)(F)F)ns1 [Compound C-35, N-(3-(2,2-difluoropropyl)-1,2,4-thiadiazol-5-yl)-2-methyl-5-(3-(trifluoromethyl)phenyl)thiophene-3-carboxamide] | 29.1 |
| CCN(CC)Cc1nsc(NC(=O)c2cc(-c3cccc(OC)c3)sc2C)n1 [Compound C-50, N-(3-((diethylamino)methyl)-1,2,4-thiadiazol-5-yl)-5-(3-methoxyphenyl)-2-methyl-thiophene-3-carboxamide] | 12.5 |
| Cc1oc(-c2cccc(C(F)(F)F)c2)cc1C(=O)Nc1nc(CN2CCOCC2)ns1 [Compound A-110, 2-Methyl-N-(3-(morpholinomethyl)-1,2,4-thiadiazol-5-yl)-5-(3-(trifluoromethyl)phenyl) furan-3-carboxamide] | 0.25 |
| [2H]c1c(-c2cccc(C#N)c2)oc(C)c1C(=O)Nc1nc(CC(C)=O)ns1 [Compound A-35, 5-(3-Cyanophenyl)-2-methyl-N-(3-(2-oxopropyl)-1,2,4-thiadiazol-5-yl)furan-4-d-3-carboxamide] | 0.72 |
| CC(=O)Cc1nsc(NC(=O)c2cc(-c3cccc(OC(C)=O)c3)oc2C)n1 [Compound A-27, 3-(5-Methyl-4-((3-(2-oxopropyl)-1,2,4-thiadiazol-5-yl)carbamoyl)furan-2-yl)phenyl acetate] | 5.5 |
| Cc1oc(C(=O)Nc2nc(CC(C)O)ns2)cc1-c1cccc(C(F)(F)F)c1 (centres unmarked) [Compound F-11, N-(3-(2-hydroxypropyl)-1,2,4-thiadiazol-5-yl)-5-methyl-4-(3-(trifluoromethyl)phenyl) furan-2-carboxamide] | 22.3 |
| COc1cccc(-c2cc(C(=O)Nc3nc(CC(C)N4CCCCC4)ns3)c(C)o2)c1 (centres unmarked) [Compound A-49, 5-(3-Methoxyphenyl)-2-methyl-N-(3-(2-(piperidin-1-yl)propyl)-1,2,4-thiadiazol-5-yl)furan-3-carboxamide] | 0.21 |
| CC(=O)Cc1nsc(NC(=O)c2cc(-c3cccnc3)oc2C)n1 [Compound A-31, 2-Methyl-N-(3-(2-oxopropyl)-1,2,4-thiadiazol-5-yl)-5-(pyridin-3-yl)furan-3-carboxamide] | 6.33 |
| CC(=O)Cc1nsc(NC(=O)c2cc(-c3ccc(Cl)c(Cl)c3)oc2C)n1 [Compound A-10, 5-(3,4-Dichlorophenyl)-2-methyl-N-(3-(2-oxopropyl)-1,2,4-thiadiazol-5-yl)furan-3-carboxamide] | 1.24 |
| COC(=O)c1cccc(-c2cc(C(=O)Nc3nc(CC(C)=O)ns3)c(C)o2)c1 [Compound A-30, Methyl 3-(5-methyl-4-((3-(2-oxopropyl)-1,2,4-thiadiazol-5-yl)carbamoyl)furan-2-yl)benzoate] | 5.19 |
| CCN(CC)C(C)Cc1nsc(NC(=O)c2cc(-c3cccc(OC(F)F)c3)oc2C)n1 (centres unmarked) [Compound A-45, N-(3-(2-(diethylamino)propyl)-1,2,4-thiadiazol-5-yl)-5-(3-(difluoromethoxy)phenyl)-2-methylfuran-3-carboxamide] | 0.04 |
| COc1cccc(-c2cc(C(=O)Nc3nc(CC(C)=O)ns3)c(C)o2)c1 [Compound A-4, 5-(3-Methoxyphenyl)-2-methyl-N-(3-(2-oxopropyl)-1,2,4-thiadiazol-5-yl)furan-3-carboxamide] | 0.35 |
| Cc1oc(-c2cccc(C(F)(F)F)c2)cc1C(=O)Nc1ncns1 [Compound A-99, 2-Methyl-N-(1,2,4-thiadiazol-5-yl)-5-(3-(trifluoromethyl)phenyl)furan-3-carboxamide] | 10.4 |
| Cc1sc(-c2cccc(OC(F)F)c2)cc1C(=O)Nc1nc(CN2CCN(C)CC2)ns1 [Compound C-58, 5-(3-(Difluoromethoxy)phenyl)-2-methyl-N-(3-((4-methylpiperazin-1-yl)methyl)-1,2,4-thiadiazol-5-yl)thiophene-3-carboxamide] | 9.79 |
| CCN(CC)C(C)Cc1nsc(NC(=O)c2coc(-c3cccc(C(F)(F)F)c3)c2)n1 (centres unmarked) [Compound B-7, N-(3-(2-(diethylamino)propyl)-1,2,4-thiadiazol-5-yl)-5-(3-(trifluoromethyl)phenyl)furan-3-carboxamide] | 15 |
